Results taken from article PMC4594927 (PLoS ONE, 2015).

Legend:
MtbIMPDH2ΔCBS [1] = molecular target: T1, MtbIMPDH2ΔCBS (Mycobacterium tuberculosis, UniProt P9WKI7, DEL126-250/R252G); assay type: biochemical
MtbIMPDH2ΔCBS [2] = molecular target: T1, MtbIMPDH2ΔCBS; assay type: biochemical; remark: listed apart in the source

SMILES | mechanism of inhibition vs. IMP (MtbIMPDH2ΔCBS [1]) | mechanism of inhibition vs. NAD^+ (MtbIMPDH2ΔCBS [1]) | mechanism of inhibition with respect to IMP (MtbIMPDH2ΔCBS [1]) | mechanism of inhibition with respect to NAD+ (MtbIMPDH2ΔCBS [1]) | Kii (NAD+) (MtbIMPDH2ΔCBS [2])
COc1c(C)c2c(c(O)c1C/C=C(\C)Cn1cc(COC[C@H]3O[C@@H](n4cnc5c(N)ncnc54)[C@H](O)[C@@H]3O)nn1)C(=O)OC2 [MAD1, reference compound] | 1000 ± 50 (UC) | 1400 ± 100 (UC) | uncompetitive | uncompetitive | –
NC(=O)c1ccc[n+]([C@@H]2O[C@H](COP(=O)([O-])OP(=O)(O)OC[C@H]3O[C@@H](n4cnc5c(N)ncnc54)[C@H](O)[C@@H]3O)[C@@H](O)[C@H]2O)c1 [NAD+] | – | – | – | – | 16 ± 1 mM
C=C(C)c1cccc(C(C)(C)NC(=O)Nc2ccc(Cl)c(C(=O)N(C)C)c2)c1 [P41] | 9 ± 4 (UC) | 13 ± 4 (NC) | uncompetitive | noncompetitive | –
C[C@H](Nc1cccc(Cl)c1Cl)C(=O)Nc1ccc2oc(-c3ccncc3)nc2c1 [Q67] | 17 ± 9 (UC) | 7 ± 7 (C) | uncompetitive | competitive | –
